Results on 1 compound are retold here after BindingDB's records for doi:10.1016/j.bmcl.2009.10.054 (AstraZeneca, 2009).

The experiment can be described thus: Inhibition of erythropoietin-stimulated STAT5 expressed in human U2OS cells.

`Cc1cc(Nc2nc(N[C@@H](C)c3ncc(F)cn3)c(C#N)nc2C)[nH]n1` [(S)-3-(1-(5-fluoropyrimidin-2-yl)ethylamino)-6-methyl-5-(5-methyl-1H-pyrazol-3-ylamino)pyrazine-2-carbonitrile] registered a half-maximal effective concentration (EC50) of 40 nM.

As a reminder, the EC50 is the midpoint of the concentration-response curve. Low readings indicate a more potent agent, high ones a less potent agent.
